Key:
Assay in all cases: Test C postemergence
Type in all cases: in vivo
Conditions in all cases: scale 0 to 100, 0 no effect, 100 complete control
[1] = test system: Galium (catchweed bedstraw, Galium aparine)
Method in brief: (§1)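 Herbicidal effect, applied preemergence to sown seeds or postemergence to 1- to 4-leaf plants, was scored visually 13 to 15 d after application, 0 to 100 versus controls.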

Kochia (Kochia scoparia) = test system: Kochia (Kochia scoparia)
Method in brief: as §1

[2] = test system: barnyardgrass (Echinochloa crus-galli)
Method in brief: as §1

[3] = test system: blackgrass (Alopecurus myosuroides)
Method in brief: as §1

[4] = test system: chickweed (common chickweed, Stellaria media)
Method in brief: as §1

corn (Zea mays) = test system: corn (Zea mays)
Method in brief: as §1

[5] = test system: crabgrass, large (large crabgrass, Digitaria sanguinalis)
Method in brief: as §1

[6] = test system: foxtail, giant (giant foxtail, Setaria faberii)
Method in brief: as §1

[7] = test system: johnsongrass (Sorghum halepense)
Method in brief: as §1

[8] = test system: lambsquarters (Chenopodium album)
Method in brief: as §1

[9] = test system: morningglory (Ipomoea coccinea)
Method in brief: as §1

[10] = test system: nutsedge, yellow (yellow nutsedge, Cyperus esculentus)
Method in brief: as §1

[11] = test system: oat, wild (wild oat, Avena fatua)
Method in brief: as §1

[12] = test system: oilseed rape (Brassica napus)
Method in brief: as §1

[13] = test system: pigweed (Amaranthus retroflexus)
Method in brief: as §1

[14] = test system: ragweed (common ragweed, Ambrosia elatior)
Method in brief: as §1

[15] = test system: ryegrass, Italian (Italian ryegrass, Lolium multiflorum)
Method in brief: as §1

soybean (Glycine max) = test system: soybean (Glycine max)
Method in brief: as §1

[16] = test system: velvetleaf (Abutilon theophrasti)
Method in brief: as §1

[17] = test system: waterhemp (common waterhemp, Amaranthus rudis)
Method in brief: as §1

[18] = test system: wheat (winter wheat, Triticum aestivum)
Method in brief: as §1

CN1C[C@H](c2ccc(F)c(F)c2)[C@@H](C(=O)Nc2ccccc2F)C1=O [Compound 596, (3S,4S)-4-(3,4-difluorophenyl)-N-(2-fluorophenyl)-1-methyl-2-oxo-3-pyrrolidinecarboxamide]
Plant response rating, Galium ([1]; 31 g ai/ha): 40
Plant response rating, Galium ([1]; 62 g ai/ha): 45
Plant response rating, Galium ([1]; 125 g ai/ha): 60
Plant response rating, Galium ([1]; 250 g ai/ha): 60
Plant response rating, Kochia (Kochia (Kochia scoparia); 31 g ai/ha): 30
Plant response rating, Kochia (Kochia (Kochia scoparia); 62 g ai/ha): 30
Plant response rating, Kochia (Kochia (Kochia scoparia); 125 g ai/ha): 35
Plant response rating, Kochia (Kochia (Kochia scoparia); 250 g ai/ha): 60
Plant response rating, Barnyardgrass ([2]; 31 g ai/ha): 0
Plant response rating, Barnyardgrass ([2]; 62 g ai/ha): 30
Plant response rating, Barnyardgrass ([2]; 125 g ai/ha): 45
Plant response rating, Barnyardgrass ([2]; 250 g ai/ha): 65
Plant response rating, Blackgrass ([3]; 31 g ai/ha): 0
Plant response rating, Blackgrass ([3]; 62 g ai/ha): 0
Plant response rating, Blackgrass ([3]; 125 g ai/ha): 0
Plant response rating, Blackgrass ([3]; 250 g ai/ha): 10
Plant response rating, Chickweed ([4]; 31 g ai/ha): 20
Plant response rating, Chickweed ([4]; 62 g ai/ha): 20
Plant response rating, Chickweed ([4]; 125 g ai/ha): 25
Plant response rating, Chickweed ([4]; 250 g ai/ha): 80
Plant response rating, Corn (corn (Zea mays); 31 g ai/ha): 0
Plant response rating, Corn (corn (Zea mays); 62 g ai/ha): 0
Plant response rating, Corn (corn (Zea mays); 125 g ai/ha): 0
Plant response rating, Corn (corn (Zea mays); 250 g ai/ha): 10
Plant response rating, Crabgrass, Large ([5]; 31 g ai/ha): 30
Plant response rating, Crabgrass, Large ([5]; 62 g ai/ha): 65
Plant response rating, Crabgrass, Large ([5]; 125 g ai/ha): 65
Plant response rating, Crabgrass, Large ([5]; 250 g ai/ha): 75
Plant response rating, Foxtail, Giant ([6]; 31 g ai/ha): 10
Plant response rating, Foxtail, Giant ([6]; 62 g ai/ha): 20
Plant response rating, Foxtail, Giant ([6]; 125 g ai/ha): 50
Plant response rating, Foxtail, Giant ([6]; 250 g ai/ha): 80
Plant response rating, Johnsongrass ([7]; 31 g ai/ha): 0
Plant response rating, Johnsongrass ([7]; 62 g ai/ha): 0
Plant response rating, Johnsongrass ([7]; 125 g ai/ha): 0
Plant response rating, Johnsongrass ([7]; 250 g ai/ha): 10
Plant response rating, Lambsquarters ([8]; 31 g ai/ha): 35
Plant response rating, Lambsquarters ([8]; 62 g ai/ha): 35
Plant response rating, Lambsquarters ([8]; 125 g ai/ha): 40
Plant response rating, Lambsquarters ([8]; 250 g ai/ha): 55
Plant response rating, Morningglory ([9]; 31 g ai/ha): 0
Plant response rating, Morningglory ([9]; 62 g ai/ha): 10
Plant response rating, Morningglory ([9]; 125 g ai/ha): 25
Plant response rating, Morningglory ([9]; 250 g ai/ha): 50
Plant response rating, Nutsedge, Yellow ([10]; 31 g ai/ha): 0
Plant response rating, Nutsedge, Yellow ([10]; 62 g ai/ha): 0
Plant response rating, Nutsedge, Yellow ([10]; 125 g ai/ha): 10
Plant response rating, Nutsedge, Yellow ([10]; 250 g ai/ha): 10
Plant response rating, Oat, Wild ([11]; 31 g ai/ha): 0
Plant response rating, Oat, Wild ([11]; 62 g ai/ha): 0
Plant response rating, Oat, Wild ([11]; 125 g ai/ha): 0
Plant response rating, Oat, Wild ([11]; 250 g ai/ha): 5
Plant response rating, Oilseed Rape ([12]; 31 g ai/ha): 0
Plant response rating, Oilseed Rape ([12]; 62 g ai/ha): 0
Plant response rating, Oilseed Rape ([12]; 125 g ai/ha): 30
Plant response rating, Oilseed Rape ([12]; 250 g ai/ha): 30
Plant response rating, Pigweed ([13]; 31 g ai/ha): 10
Plant response rating, Pigweed ([13]; 62 g ai/ha): 10
Plant response rating, Pigweed ([13]; 125 g ai/ha): 35
Plant response rating, Pigweed ([13]; 250 g ai/ha): 30
Plant response rating, Ragweed ([14]; 31 g ai/ha): 0
Plant response rating, Ragweed ([14]; 62 g ai/ha): 0
Plant response rating, Ragweed ([14]; 125 g ai/ha): 0
Plant response rating, Ragweed ([14]; 250 g ai/ha): 15
Plant response rating, Ryegrass, Italian ([15]; 31 g ai/ha): 0
Plant response rating, Ryegrass, Italian ([15]; 62 g ai/ha): 0
Plant response rating, Ryegrass, Italian ([15]; 125 g ai/ha): 0
Plant response rating, Ryegrass, Italian ([15]; 250 g ai/ha): 0
Plant response rating, Soybean (soybean (Glycine max); 31 g ai/ha): 0
Plant response rating, Soybean (soybean (Glycine max); 62 g ai/ha): 0
Plant response rating, Soybean (soybean (Glycine max); 125 g ai/ha): 10
Plant response rating, Soybean (soybean (Glycine max); 250 g ai/ha): 0
Plant response rating, Velvetleaf ([16]; 31 g ai/ha): 35
Plant response rating, Velvetleaf ([16]; 62 g ai/ha): 35
Plant response rating, Velvetleaf ([16]; 125 g ai/ha): 50
Plant response rating, Velvetleaf ([16]; 250 g ai/ha): 55
Plant response rating, Waterhemp ([17]; 31 g ai/ha): 0
Plant response rating, Waterhemp ([17]; 62 g ai/ha): 0
Plant response rating, Waterhemp ([17]; 125 g ai/ha): 20
Plant response rating, Waterhemp ([17]; 250 g ai/ha): 30
Plant response rating, Wheat ([18]; 31 g ai/ha): 0
Plant response rating, Wheat ([18]; 62 g ai/ha): 0
Plant response rating, Wheat ([18]; 125 g ai/ha): 0
Plant response rating, Wheat ([18]; 250 g ai/ha): 0

Reference: US12077503B2, “Substituted cyclic amides and their use as herbicides” (FMC CORPORATION, priority 2015, dated 2024)
